# Measurements taken from US20230049952A1, “METHODS AND COMPOUNDS FOR RESTORING MUTANT P53 FUNCTION” (PMV Pharmaceuticals, Inc., priority 2020, published 2023).
# Like-named read-outs stand apart in the source and are kept apart here.
# How the values were obtained:
# P-GP [1] = biological target: T1, P-GP (Homo sapiens, UniProt P08183); assay: P-GP substrate assessment, Caco-2 monolayers
# P-gp (MDR1) = assay: in vitro; settings: dog, MDCK-MDR1
# P-gp [2] = assay: in vitro; settings: dog, MDCK-MDR1, pH 7.4
# in vitro [3] = settings: human, Caco-2
# P-gp [4] = assay: in vitro; settings: human, Caco-2, pH 7.4
# P-GP [5] = biological target: T1, P-GP; assay: in vitro
# P-GP [6] = biological target: T1, P-GP; assay: in vitro; settings: Caco-2, pH 7.4
# P-GP [7] = biological target: T1, P-GP; settings: Caco-2, 120 min, 10 µM, pH 7.4
# P-GP [8] = biological target: T1, P-GP; assay: P-GP substrate assessment, MDR1-MDCK monolayers; settings: for Recovery (%): B-to-A
# P-GP [9] = biological target: T1, P-GP; assay: in vitro; settings: dog, MDCK-MDR1, pH 7.4
# [10] = cell batch quality control, BCRP-MDCK monolayers; type: in vitro ADME; settings: dog; BCRP-MDCK cell batch QC; passage 23
# Protocol: BCRP-MDCK cell monolayers were prepared at Absorption Systems. […] Each determination was performed in duplicate.
# in vitro [11] = settings: dog, MDCK-MDR1, pH 7.4
# in vitro [12] = settings: for Analyte Peak/IS Peak Ares (Mean), T60-blood / Analyte Peak/IS Peak Ares (Mean), T60-plasma: 60 min; for Analyte Peak/IS Peak Ares (Mean), T60-blood / Analyte Peak/IS Peak Ares (Mean), T60-plasma / Analyte Peak/IS Peak Ares (Mean), T0: 2 μM; for Analyte Peak/IS Peak Ares (Mean), T0: 0 min
# Protocol: All working solutions were freshly prepared similarly as described for the test article working solution.
# Assay for determining Blood to plasma ratio: Pooled male CD-1 mouse, Sprague-Dawley rat, beagle dog and cynomolgus monkey plasma, and mixed gender human blood with EDTAK2 as anticoagulant were stored on wet ice and used the same day. […] After mixing thoroughly, 0.6 mL of spiked blood was transferred to a 96-well plate in triplicate. Concurrently, control compounds were spiked into each species blood in the same fashion to generate the final concentration of 2.0 μM.
# The rest of the spiked blood samples were immediately placed into a humidified incubator with 5% CO2 at 37° C., with constant swiveling at 500 rpm for 60 min on a platform shaker. […] The T60-plasma samples for analysis were obtained by taking 50 μL of plasma from each well, mixed with 50 μL of blank blood and 100 μL of water, followed by addition of 600 μL stop solution. […] All the T0, T60-blood and T60-plasma samples were shaken vigorously at 800 rpm for 30 min followed by the centrifugation at 3220×g at 20° C. for 20 min. 100 μL aliquot of supernatant was diluted with 100 μL of water and mixed well for LC-MS/MS analysis.
# Measurement of Hematocrit: The hematocrit (the volume percentage of erythrocytes in blood) was determined in triplicate for each species by centrifuging the blood samples with a HAEMATOKRIT 200 at 9440×g for 5 min.
# Data analysis: The ratio of compound concentrations in whole blood over plasma (KB/P) and % Recovery in blood were calculated by the following equations: KB/P=[…]([T60-blood]/[T60-plasma]), where [T60-blood] is the peak area ratios of analyte/internal standard in whole blood sample at 60 min; [T60-plasma] is the peak area ratios of analyte/internal standard in plasma sample at 60 min; [T0-blood] is the peak area ratios of analyte/internal standard in whole blood sample at time zero.
# CYP2C9 = CYP2C9 (Homo sapiens, UniProt P11712); settings: 20 min, 6 μM, pH 7.4
# [13] = CYP Control (negative control without CYP enzymes) in hrCYP reaction phenotyping; settings: S-mephenytoin 20 μM, metabolite 4′ - OH Mephenytoin
# MATE2K [14] = biological target: T2, MATE2K (Homo sapiens, UniProt Q86VL8); assay: in vitro; settings: HEK293 cells transfected with MATE2K, probe metformin (50 µM)
# MATE2K [15] = biological target: T2, MATE2K; assay: uptake transporter inhibition assessment, transfected HEK293; settings: inhibitor 1 μM
# CYP1A2 = CYP1A2 (Homo sapiens, UniProt P05177); settings: 20 min, 50 μM, pH 7.4
# MATE1 [16] = biological target: T3, MATE1 (Homo sapiens, UniProt Q96FL8); assay: uptake transporter inhibition assessment, transfected HEK293; settings: inhibitor 100 μM
# MATE1 [17] = biological target: T3, MATE1; assay: in vitro; settings: HEK293 cells transfected with MATE1, probe metformin (50 µM)
# OAT3 [18] = biological target: T4, OAT3 (Homo sapiens, UniProt Q8TCC7); assay: in vitro; settings: HEK293 cells transfected with OAT3, probe furosemide (5 µM)
# OAT3 [19] = biological target: T4, OAT3; assay: uptake transporter inhibition assessment, transfected HEK293; settings: inhibitor 100 μM
# CYP2D6 [20] = biological target: T5, CYP2D6 (Homo sapiens, UniProt P10635); assay: in vitro; settings: both, microsomes, pH 7.4, % of Control Enzyme Activity
# CYP2D6 [21] = biological target: T5, CYP2D6; settings: both, microsomes, 30 min, 0.123 µM, pH 7.4
# T1 sequence (P08183 whole entry): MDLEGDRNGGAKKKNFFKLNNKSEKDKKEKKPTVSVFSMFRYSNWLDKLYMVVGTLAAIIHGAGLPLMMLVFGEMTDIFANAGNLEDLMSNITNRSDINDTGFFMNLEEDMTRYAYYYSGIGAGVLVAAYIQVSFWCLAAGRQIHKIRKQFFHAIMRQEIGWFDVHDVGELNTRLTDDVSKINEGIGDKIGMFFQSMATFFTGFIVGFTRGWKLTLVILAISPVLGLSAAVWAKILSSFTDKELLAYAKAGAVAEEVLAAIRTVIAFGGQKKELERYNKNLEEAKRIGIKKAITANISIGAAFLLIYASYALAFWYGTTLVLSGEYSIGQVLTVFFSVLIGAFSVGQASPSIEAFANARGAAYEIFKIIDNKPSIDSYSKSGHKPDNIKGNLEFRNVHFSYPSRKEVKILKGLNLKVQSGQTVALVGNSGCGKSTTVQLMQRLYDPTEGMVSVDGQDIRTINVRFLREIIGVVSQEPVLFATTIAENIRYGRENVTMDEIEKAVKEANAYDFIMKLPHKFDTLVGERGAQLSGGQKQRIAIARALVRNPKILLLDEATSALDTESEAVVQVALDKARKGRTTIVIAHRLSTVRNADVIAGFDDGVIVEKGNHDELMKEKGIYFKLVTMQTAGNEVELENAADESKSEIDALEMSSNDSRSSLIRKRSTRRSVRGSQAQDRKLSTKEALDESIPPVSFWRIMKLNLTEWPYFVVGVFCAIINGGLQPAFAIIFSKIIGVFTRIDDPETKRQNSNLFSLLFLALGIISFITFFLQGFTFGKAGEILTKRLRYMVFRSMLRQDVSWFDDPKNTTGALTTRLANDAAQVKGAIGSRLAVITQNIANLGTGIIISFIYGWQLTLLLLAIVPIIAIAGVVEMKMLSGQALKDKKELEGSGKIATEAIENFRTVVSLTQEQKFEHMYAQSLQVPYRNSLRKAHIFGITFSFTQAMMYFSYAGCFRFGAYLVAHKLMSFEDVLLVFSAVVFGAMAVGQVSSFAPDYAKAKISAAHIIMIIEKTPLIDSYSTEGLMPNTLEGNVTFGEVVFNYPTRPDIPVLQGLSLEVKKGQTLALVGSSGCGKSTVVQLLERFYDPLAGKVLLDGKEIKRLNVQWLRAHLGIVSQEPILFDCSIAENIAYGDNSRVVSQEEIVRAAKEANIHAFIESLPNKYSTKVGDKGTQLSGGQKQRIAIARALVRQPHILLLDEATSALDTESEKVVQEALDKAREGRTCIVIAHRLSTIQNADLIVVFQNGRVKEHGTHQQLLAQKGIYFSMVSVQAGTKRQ
# T3 sequence (Q96FL8 whole entry): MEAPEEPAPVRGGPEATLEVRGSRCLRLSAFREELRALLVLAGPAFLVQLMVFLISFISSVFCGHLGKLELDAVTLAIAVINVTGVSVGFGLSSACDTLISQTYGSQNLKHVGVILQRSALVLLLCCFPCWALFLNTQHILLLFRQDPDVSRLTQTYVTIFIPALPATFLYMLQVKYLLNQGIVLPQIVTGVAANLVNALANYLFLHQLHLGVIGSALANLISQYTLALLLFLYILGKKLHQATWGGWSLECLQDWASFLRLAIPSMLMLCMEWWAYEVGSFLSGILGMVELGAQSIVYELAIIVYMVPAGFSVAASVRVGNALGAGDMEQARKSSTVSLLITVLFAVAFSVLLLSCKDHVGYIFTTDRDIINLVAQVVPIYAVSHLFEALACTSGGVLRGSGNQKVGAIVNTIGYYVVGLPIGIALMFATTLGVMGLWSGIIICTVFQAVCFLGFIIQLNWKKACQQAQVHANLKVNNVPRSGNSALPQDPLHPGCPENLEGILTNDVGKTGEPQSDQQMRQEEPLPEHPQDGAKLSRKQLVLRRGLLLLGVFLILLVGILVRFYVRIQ
# CYP1A2, sequence (P05177 whole entry): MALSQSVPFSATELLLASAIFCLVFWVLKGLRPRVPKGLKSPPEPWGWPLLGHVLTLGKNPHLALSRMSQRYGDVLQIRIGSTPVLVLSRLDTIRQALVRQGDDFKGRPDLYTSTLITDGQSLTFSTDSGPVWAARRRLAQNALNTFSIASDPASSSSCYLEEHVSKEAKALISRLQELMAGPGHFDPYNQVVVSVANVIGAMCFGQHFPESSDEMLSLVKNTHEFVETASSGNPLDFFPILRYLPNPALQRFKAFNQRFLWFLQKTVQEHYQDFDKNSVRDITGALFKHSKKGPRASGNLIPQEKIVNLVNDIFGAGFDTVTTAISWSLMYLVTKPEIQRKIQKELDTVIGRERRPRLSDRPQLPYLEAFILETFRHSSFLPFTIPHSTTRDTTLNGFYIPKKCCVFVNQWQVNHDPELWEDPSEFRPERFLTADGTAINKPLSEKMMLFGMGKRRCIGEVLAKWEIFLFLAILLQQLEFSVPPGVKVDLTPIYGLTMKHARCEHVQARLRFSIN
# CYP2C9, sequence (P11712 whole entry): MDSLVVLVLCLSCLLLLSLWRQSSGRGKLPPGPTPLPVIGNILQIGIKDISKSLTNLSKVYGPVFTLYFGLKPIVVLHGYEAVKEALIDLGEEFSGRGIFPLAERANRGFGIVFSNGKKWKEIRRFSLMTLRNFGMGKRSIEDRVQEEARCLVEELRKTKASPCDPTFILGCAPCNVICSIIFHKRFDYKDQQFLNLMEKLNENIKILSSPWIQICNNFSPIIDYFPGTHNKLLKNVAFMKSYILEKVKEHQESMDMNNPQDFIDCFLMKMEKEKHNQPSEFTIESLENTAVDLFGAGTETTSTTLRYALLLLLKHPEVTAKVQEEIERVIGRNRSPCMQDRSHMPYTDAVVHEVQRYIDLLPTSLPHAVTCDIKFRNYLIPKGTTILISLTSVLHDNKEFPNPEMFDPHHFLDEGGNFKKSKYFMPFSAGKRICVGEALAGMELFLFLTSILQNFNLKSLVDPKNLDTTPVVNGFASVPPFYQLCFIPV
# T2 sequence (Q86VL8 1-566 isoform Q86VL8-3): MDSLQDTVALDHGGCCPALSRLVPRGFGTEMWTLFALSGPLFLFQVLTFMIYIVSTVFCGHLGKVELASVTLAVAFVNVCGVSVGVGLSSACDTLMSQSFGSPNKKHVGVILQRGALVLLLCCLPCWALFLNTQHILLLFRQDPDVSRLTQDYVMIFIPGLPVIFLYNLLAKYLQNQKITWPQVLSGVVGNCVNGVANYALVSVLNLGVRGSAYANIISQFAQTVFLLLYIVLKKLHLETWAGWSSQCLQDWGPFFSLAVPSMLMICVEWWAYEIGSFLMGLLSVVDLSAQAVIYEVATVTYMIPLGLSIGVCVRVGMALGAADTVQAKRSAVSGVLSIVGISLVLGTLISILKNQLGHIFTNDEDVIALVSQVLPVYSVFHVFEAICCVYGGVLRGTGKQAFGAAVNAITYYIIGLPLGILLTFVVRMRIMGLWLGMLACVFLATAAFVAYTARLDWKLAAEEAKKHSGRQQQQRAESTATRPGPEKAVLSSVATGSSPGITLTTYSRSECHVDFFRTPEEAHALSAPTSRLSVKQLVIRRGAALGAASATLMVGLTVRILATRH
# T5 sequence (P10635 whole entry): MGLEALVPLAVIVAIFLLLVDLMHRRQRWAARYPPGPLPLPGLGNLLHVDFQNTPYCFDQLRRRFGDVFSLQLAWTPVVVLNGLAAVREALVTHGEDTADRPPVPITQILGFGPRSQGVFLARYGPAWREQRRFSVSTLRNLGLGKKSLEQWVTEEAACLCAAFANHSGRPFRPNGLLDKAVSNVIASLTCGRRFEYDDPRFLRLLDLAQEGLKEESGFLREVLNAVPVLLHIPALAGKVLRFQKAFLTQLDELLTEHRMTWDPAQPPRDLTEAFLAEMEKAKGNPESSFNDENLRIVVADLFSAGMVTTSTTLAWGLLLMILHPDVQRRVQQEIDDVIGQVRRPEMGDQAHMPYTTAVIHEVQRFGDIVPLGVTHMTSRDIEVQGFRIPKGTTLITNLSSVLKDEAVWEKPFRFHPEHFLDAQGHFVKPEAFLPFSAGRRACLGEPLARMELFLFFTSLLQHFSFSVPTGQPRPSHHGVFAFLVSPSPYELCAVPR
# T4 sequence (Q8TCC7 whole entry): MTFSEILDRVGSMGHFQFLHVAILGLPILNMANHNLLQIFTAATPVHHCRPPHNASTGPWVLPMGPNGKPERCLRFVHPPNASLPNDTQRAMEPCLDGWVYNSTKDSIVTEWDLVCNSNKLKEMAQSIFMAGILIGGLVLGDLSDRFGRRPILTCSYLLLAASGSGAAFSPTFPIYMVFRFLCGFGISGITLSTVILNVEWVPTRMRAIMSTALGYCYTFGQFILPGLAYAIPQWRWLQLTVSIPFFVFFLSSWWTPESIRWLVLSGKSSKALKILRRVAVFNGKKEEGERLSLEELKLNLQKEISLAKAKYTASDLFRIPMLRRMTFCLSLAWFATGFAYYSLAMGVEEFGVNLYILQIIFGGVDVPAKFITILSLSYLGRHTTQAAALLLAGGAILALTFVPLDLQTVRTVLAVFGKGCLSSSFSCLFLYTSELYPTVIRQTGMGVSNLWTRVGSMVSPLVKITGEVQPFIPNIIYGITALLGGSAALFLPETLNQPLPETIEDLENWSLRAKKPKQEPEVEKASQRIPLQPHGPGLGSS
compound,measurement,setting,value
"C[C@H]1O[C@@H](O[C@H]2[C@@H](O)C[C@H](O[C@H]3[C@@H](O)C[C@H](O[C@H]4CC[C@@]5(C)[C@H](CC[C@@H]6[C@@H]5C[C@@H](O)[C@]5(C)[C@@H](C7=CC(=O)OC7)CC[C@]65O)C4)O[C@@H]3C)O[C@@H]2C)C[C@H](O)[C@@H]1O [Digoxin, digoxin]",P-gp Substrate Classification,P-GP [1]; Digoxin,Positive
same,Recovery (%),"P-GP [1]; Digoxin + 1 μM Valspodar, A-to-B",72.2%
same,Recovery (%),"P-GP [1]; Digoxin + 1 μM Valspodar, B-to-A",95.3%
same,Papp AVG,"P-GP [1]; Digoxin, A-to-B",0.494 10^−6 cm/s
same,Papp AVG,"P-GP [1]; Digoxin, B-to-A",10.9 10^−6 cm/s
same,Papp R1,"P-GP [1]; Digoxin, B-to-A",11.4 10^−6 cm/s
same,Recovery (%),"P-GP [1]; Digoxin, B-to-A",79.9%
same,Papp B→A,P-gp (MDR1),11 ×10⁻⁶ cm/s
same,Papp A→B at 120 min,P-gp [2],0.0792 ×10⁻⁶ cm/s
same,Papp A→B,in vitro [3],0.511 ×10⁻⁶ cm/s
same,Papp A→B at 120 min,P-gp [4],0.403 ×10⁻⁶ cm/s
same,Papp B→A at 120 min,P-gp [4],8.93 ×10⁻⁶ cm/s
same,"recovery at 120 min, 10 µM","P-GP [5]; Caco-2, pH 7.4, % Recovery",95.4%
same,"Papp B→A at 120 min, 10 μM","P-GP [5]; Caco-2, pH 7.4, Papp AVG",10.9 ×10⁻⁶ cm/s
same,"Papp A→B at 120 min, 10 μM","P-GP [5]; Caco-2, pH 7.4, Papp R1",0.344 ×10⁻⁶ cm/s
same,"Papp A→B at 120 min, 10 μM","P-GP [5]; Caco-2, pH 7.4, Papp R2",0.645 ×10⁻⁶ cm/s
same,"Papp B→A at 120 min, 10 μM","P-GP [5]; Caco-2, pH 7.4, Papp R2",10.5 ×10⁻⁶ cm/s
same,"recovery at 120 min, 10 µM","P-GP [5]; Caco-2, pH 7.4, Recovery (%)",73.4%
same,Papp A→B at 120 min,P-GP [6],0.344 ×10⁻⁶ cm/s
same,Papp B→A at 120 min,P-GP [6],10.5 ×10⁻⁶ cm/s
same,recovery at 120 min,P-GP [6],73.4%
same,Recovery (%),P-GP [7],79.9%
same,P-gp Substrate Classification,P-GP [8]; Digoxin,Positive
same,Recovery (%),P-GP [8]; Digoxin + 1 μM Valspodar,85.9%
same,Papp AVG,"P-GP [8]; Digoxin, A-to-B",0.0321 10^−6 cm/s
same,Papp R1,"P-GP [8]; Digoxin, A-to-B",0.0436 10^−6 cm/s
same,Recovery (%),P-GP [8]; Digoxin,74.9%
same,Papp B→A at 120 min,P-GP [9],10.4 ×10⁻⁶ cm/s
same,recovery at 120 min,P-GP [9],77.6%
CC(C)NCC(O)COc1cccc2ccccc12 (stereo not drawn) [Propranolol],Papp,[10],20.1 ×10⁻⁶ cm/s
same,Papp at 120 min,in vitro [11],20.3 ×10⁻⁶ cm/s
O=C(O)Cc1ccccc1Nc1c(Cl)cccc1Cl [Diclofenac],"recovery at 60 min, 2 μM","in vitro [12]; both, human",91.2 ± 4.43%
same,"Analyte Peak/IS Peak Ares (Mean), T60-blood","in vitro [12]; both, human",0.311
same,"Analyte Peak/IS Peak Ares (Mean), T60-plasma","in vitro [12]; both, human",0.473
same,"recovery at 60 min, 2 μM","in vitro [12]; male, CD-1, mouse",100 ± 6.79%
same,"Analyte Peak/IS Peak Ares (Mean), T60-blood","in vitro [12]; male, CD-1, mouse",0.365
same,"Analyte Peak/IS Peak Ares (Mean), T60-plasma","in vitro [12]; male, CD-1, mouse",0.501
same,"recovery at 60 min, 2 μM","in vitro [12]; male, Sprague-Dawley, rat",100 ± 3.45%
same,"Analyte Peak/IS Peak Ares (Mean), T0","in vitro [12]; male, Sprague-Dawley, rat",0.330
same,"Analyte Peak/IS Peak Ares (Mean), T60-blood","in vitro [12]; male, Sprague-Dawley, rat",0.331
same,"Analyte Peak/IS Peak Ares (Mean), T60-plasma","in vitro [12]; male, Sprague-Dawley, rat",0.480
same,"recovery at 60 min, 2 μM","in vitro [12]; male, beagle, dog",104 ± 1.36%
same,"Analyte Peak/IS Peak Ares (Mean), T0","in vitro [12]; male, beagle, dog",0.301
same,"Analyte Peak/IS Peak Ares (Mean), T60-blood","in vitro [12]; male, beagle, dog",0.313
same,"Analyte Peak/IS Peak Ares (Mean), T60-plasma","in vitro [12]; male, beagle, dog",0.484
same,"recovery at 60 min, 2 μM","in vitro [12]; male, cynomolgus monkey",101 ± 8.23%
same,"Analyte Peak/IS Peak Ares (Mean), T0","in vitro [12]; male, cynomolgus monkey",0.314
same,"Analyte Peak/IS Peak Ares (Mean), T60-blood","in vitro [12]; male, cynomolgus monkey",0.318
same,"Analyte Peak/IS Peak Ares (Mean), T60-plasma","in vitro [12]; male, cynomolgus monkey",0.513
same,Formation Rate,CYP2C9,650 pmol metabolite/min/mg Supersome protein
same,Measured Metabolite,CYP2C9,0.676 µM
CC[C@@]1(c2ccccc2)NC(=O)N(C)C1=O [S-mephenytoin],Formation Rate,[13],0 pmol metabolite/min/mg Supersome protein
same,Measured Metabolite,[13],0 µM
CCc1nc(N)nc(N)c1-c1ccc(Cl)cc1 [Pyrimethamine],inhibition at 1 µM,MATE2K [14],93.3%
same,Inhibition Potential Classification,MATE2K [15],Positive (Percent inhibition≥50%: Positive)
CCOc1ccc(NC(C)=O)cc1 [Phenacetin],Formation Rate,CYP1A2,1819 pmol metabolite/min/mg Supersome protein
same,Measured Metabolite,CYP1A2,3.71 µM
CN/C(=N/CCSCc1nc[nH]c1C)NC#N [Cimetidine],Inhibition Potential Classification,MATE1 [16],Positive (Percent inhibition≥50%: Positive)
same,inhibition at 100 µM,MATE1 [17],99.2%
CCCN(CCC)S(=O)(=O)c1ccc(C(=O)O)cc1 [Probenecid],inhibition at 100 µM,OAT3 [18],72%
same,Inhibition Potential Classification,OAT3 [19],Positive (Percent inhibition≥50%: Positive)
Fc1ccc([C@@H]2CCNC[C@H]2COc2ccc3c(c2)OCO3)cc1 [Paroxetine],"activity at 30 min, 0.123 µM",CYP2D6 [20],95.8%
same,% of Control Enzyme Activity,CYP2D6 [21],79.1%
